Measurements as given in ChEMBL document CHEMBL3885881, “DrugMatrix”.

Species: Rattus norvegicus
Assay: DrugMatrix - Regimen: Daily Repeat
Format: toxicity, organism-based, Sprague-Dawley
Parameters: regimen Daily Repeat, gender Male, age 6-8 weeks
Settings: in vivo, po, route oral GAVAGE, […]; for ABSOLUTE BASOPHIL / ABSOLUTE EOSINOPHIL / ABSOLUTE LYMPHOCYTE / ABSOLUTE MONOCYTE / ABSOLUTE SEGMENTED NEUTROPHIL / BASOPHIL / EOSINOPHIL / HEMATOCRIT / HEMOGLOBIN / LEUKOCYTE COUNT / LYMPHOCYTE / MEAN CORPUSCULAR HEMOGLOBIN / MEAN CORPUSCULAR HEMOGLOBIN CONCENTRATION / MEAN CORPUSCULAR VOLUME / MONOCYTE / NEUTROPHIL / NUCLEATED RED BLOOD CELLS / PLATELET COUNT: tissue Blood; for ALANINE AMINOTRANSFERASE / ALBUMIN / ALKALINE PHOSPHATASE / ASPARTATE AMINOTRANSFERASE / BLOOD UREA NITROGEN / CARBON DIOXIDE / CHLORIDE / CHOLESTEROL / CREATINE PHOSPHOKINASE / CREATININE / GLUCOSE / LACTATE DEHYDROGENASE / LIPASE / PHOSPHORUS / POTASSIUM / SODIUM / TOTAL BILIRUBIN / TOTAL PROTEIN / URIC ACID: tissue Plasma
[1] = 1 mg/kg, 72 h, dose level Low, time 3 day
[2] = 1 mg/kg, 120 h, dose level Low, time 5 day
[3] = 21 mg/kg, 72 h, dose level High, time 3 day
[4] = 21 mg/kg, 120 h, dose level High, time 5 day

O=C(CCCN1CCC(O)(c2ccc(Cl)cc2)CC1)c1ccc(F)cc1 [HALOPERIDOL]
ABSOLUTE BASOPHIL [1]: 0 CELLS/uL
ABSOLUTE EOSINOPHIL [1]: 94.33 CELLS/uL
ABSOLUTE LYMPHOCYTE [1]: 11131.67 CELLS/uL
ABSOLUTE MONOCYTE [1]: 120.67 CELLS/uL
ABSOLUTE SEGMENTED NEUTROPHIL [1]: 1053.33 CELLS/uL
BASOPHIL [1]: 0%
EOSINOPHIL [1]: 0.67%
HEMATOCRIT [1]: 33.6%
HEMOGLOBIN [1]: 13.7 G/DL
LEUKOCYTE COUNT [1]: 12.4 x10E3/uL
LYMPHOCYTE [1]: 88.33%
MEAN CORPUSCULAR HEMOGLOBIN [1]: 25.53 pg
MEAN CORPUSCULAR HEMOGLOBIN CONCENTRATION [1]: 40.8 G/DL
MEAN CORPUSCULAR VOLUME [1]: 62.6 fL
MONOCYTE [1]: 1%
NEUTROPHIL [1]: 10%
NUCLEATED RED BLOOD CELLS [1]: 0 /100WBC
PLATELET COUNT [1]: 969 x10E3/uL
ALANINE AMINOTRANSFERASE [1]: 88.67 u/L
ALBUMIN [1]: 3.97 G/DL
ALKALINE PHOSPHATASE [1]: 450 u/L
ASPARTATE AMINOTRANSFERASE [1]: 97.33 u/L
BLOOD UREA NITROGEN [1]: 12.33 mg/dL
CARBON DIOXIDE [1]: 31.67 mmol/L
CHLORIDE [1]: 97 MEQ/L
CHOLESTEROL [1]: 75.67 mg/dL
CREATINE PHOSPHOKINASE [1]: 318.67 u/L
CREATININE [1]: 0.13 mg/dL
GLUCOSE [1]: 163.67 mg/dL
LACTATE DEHYDROGENASE [1]: 170 u/L
LIPASE [1]: 15 u/L
PHOSPHORUS [1]: 11.33 mg/dL
POTASSIUM [1]: 6.08 MEQ/L
SODIUM [1]: 142.45 MEQ/L
TOTAL BILIRUBIN [1]: 0.17 mg/dL
TOTAL PROTEIN [1]: 5.67 G/DL
URIC ACID [1]: 1 mg/dL
ABSOLUTE BASOPHIL [2]: 0 CELLS/uL
ABSOLUTE EOSINOPHIL [2]: 0 CELLS/uL
ABSOLUTE LYMPHOCYTE [2]: 12900 CELLS/uL
ABSOLUTE MONOCYTE [2]: 131.67 CELLS/uL
ABSOLUTE SEGMENTED NEUTROPHIL [2]: 1068.33 CELLS/uL
BASOPHIL [2]: 0%
EOSINOPHIL [2]: 0%
HEMATOCRIT [2]: 34.63%
HEMOGLOBIN [2]: 14.03 G/DL
LEUKOCYTE COUNT [2]: 14.1 x10E3/uL
LYMPHOCYTE [2]: 91.67%
MEAN CORPUSCULAR HEMOGLOBIN [2]: 25.73 pg
MEAN CORPUSCULAR HEMOGLOBIN CONCENTRATION [2]: 40.5 G/DL
MEAN CORPUSCULAR VOLUME [2]: 63.57 fL
MONOCYTE [2]: 1%
NEUTROPHIL [2]: 7.33%
NUCLEATED RED BLOOD CELLS [2]: 0 /100WBC
PLATELET COUNT [2]: 1083 x10E3/uL
ALANINE AMINOTRANSFERASE [2]: 51 u/L
ALBUMIN [2]: 4.17 G/DL
ALKALINE PHOSPHATASE [2]: 383.33 u/L
ASPARTATE AMINOTRANSFERASE [2]: 81.33 u/L
BLOOD UREA NITROGEN [2]: 16.33 mg/dL
CARBON DIOXIDE [2]: 25.67 mmol/L
CHLORIDE [2]: 102 MEQ/L
CHOLESTEROL [2]: 77.33 mg/dL
CREATINE PHOSPHOKINASE [2]: 323.67 u/L
CREATININE [2]: 0.18 mg/dL
GLUCOSE [2]: 144 mg/dL
LACTATE DEHYDROGENASE [2]: 223.33 u/L
LIPASE [2]: 11.33 u/L
PHOSPHORUS [2]: 10.8 mg/dL
POTASSIUM [2]: 6.15 MEQ/L
SODIUM [2]: 143.13 MEQ/L
TOTAL BILIRUBIN [2]: 0.17 mg/dL
TOTAL PROTEIN [2]: 5.77 G/DL
URIC ACID [2]: 1.17 mg/dL
ABSOLUTE BASOPHIL [3]: 0 CELLS/uL
ABSOLUTE EOSINOPHIL [3]: 71.67 CELLS/uL
ABSOLUTE LYMPHOCYTE [3]: 13503.67 CELLS/uL
ABSOLUTE MONOCYTE [3]: 143.33 CELLS/uL
ABSOLUTE SEGMENTED NEUTROPHIL [3]: 1014.67 CELLS/uL
BASOPHIL [3]: 0%
EOSINOPHIL [3]: 0.33%
HEMATOCRIT [3]: 37.23%
HEMOGLOBIN [3]: 14.77 G/DL
LEUKOCYTE COUNT [3]: 14.73 x10E3/uL
LYMPHOCYTE [3]: 92.33%
MEAN CORPUSCULAR HEMOGLOBIN [3]: 23.97 pg
MEAN CORPUSCULAR HEMOGLOBIN CONCENTRATION [3]: 39.67 G/DL
MEAN CORPUSCULAR VOLUME [3]: 60.4 fL
MONOCYTE [3]: 0.67%
NEUTROPHIL [3]: 6.67%
NUCLEATED RED BLOOD CELLS [3]: 0 /100WBC
PLATELET COUNT [3]: 1422.33 x10E3/uL
ALANINE AMINOTRANSFERASE [3]: 42.33 u/L
ALBUMIN [3]: 4.2 G/DL
ALKALINE PHOSPHATASE [3]: 358.33 u/L
ASPARTATE AMINOTRANSFERASE [3]: 92.33 u/L
BLOOD UREA NITROGEN [3]: 16.33 mg/dL
CARBON DIOXIDE [3]: 22.67 mmol/L
CHLORIDE [3]: 103.67 MEQ/L
CHOLESTEROL [3]: 58 mg/dL
CREATINE PHOSPHOKINASE [3]: 803 u/L
CREATININE [3]: 0.18 mg/dL
GLUCOSE [3]: 168 mg/dL
LACTATE DEHYDROGENASE [3]: 310 u/L
LIPASE [3]: 11.33 u/L
PHOSPHORUS [3]: 12.4 mg/dL
POTASSIUM [3]: 6.38 MEQ/L
SODIUM [3]: 143.4 MEQ/L
TOTAL BILIRUBIN [3]: 0.13 mg/dL
TOTAL PROTEIN [3]: 5.9 G/DL
URIC ACID [3]: 2.07 mg/dL
ABSOLUTE BASOPHIL [4]: 0 CELLS/uL
ABSOLUTE EOSINOPHIL [4]: 46.33 CELLS/uL
ABSOLUTE LYMPHOCYTE [4]: 13529.67 CELLS/uL
ABSOLUTE MONOCYTE [4]: 94 CELLS/uL
ABSOLUTE SEGMENTED NEUTROPHIL [4]: 1530 CELLS/uL
BASOPHIL [4]: 0%
EOSINOPHIL [4]: 0.33%
HEMATOCRIT [4]: 35.97%
HEMOGLOBIN [4]: 14.07 G/DL
LEUKOCYTE COUNT [4]: 15.2 x10E3/uL
LYMPHOCYTE [4]: 88.67%
MEAN CORPUSCULAR HEMOGLOBIN [4]: 23.57 pg
MEAN CORPUSCULAR HEMOGLOBIN CONCENTRATION [4]: 39.13 G/DL
MEAN CORPUSCULAR VOLUME [4]: 60.3 fL
MONOCYTE [4]: 0.67%
NEUTROPHIL [4]: 10.33%
NUCLEATED RED BLOOD CELLS [4]: 0.33 /100WBC
PLATELET COUNT [4]: 1209.33 x10E3/uL
ALANINE AMINOTRANSFERASE [4]: 53 u/L
ALBUMIN [4]: 4.13 G/DL
ALKALINE PHOSPHATASE [4]: 352.33 u/L
ASPARTATE AMINOTRANSFERASE [4]: 80.33 u/L
BLOOD UREA NITROGEN [4]: 17.33 mg/dL
CARBON DIOXIDE [4]: 23 mmol/L
CHLORIDE [4]: 103.33 MEQ/L
CHOLESTEROL [4]: 69 mg/dL
CREATINE PHOSPHOKINASE [4]: 224.67 u/L
CREATININE [4]: 0.18 mg/dL
GLUCOSE [4]: 201.67 mg/dL
LACTATE DEHYDROGENASE [4]: 239 u/L
LIPASE [4]: 11.33 u/L
PHOSPHORUS [4]: 11.33 mg/dL
POTASSIUM [4]: 6.19 MEQ/L
SODIUM [4]: 143.37 MEQ/L
TOTAL BILIRUBIN [4]: 0.2 mg/dL
TOTAL PROTEIN [4]: 5.63 G/DL
URIC ACID [4]: 1.4 mg/dL
